Like-named read-outs stand apart in the source and are kept apart here. Residues, ends and D or L forms follow the SMILES beside them. *: point of attachment. Cbz = O=C(OCc1ccccc1)*
What was measured:
[1] = target: T1, PARK7 (Homo sapiens, UniProt Q99497); experiment: Hit validation and pure-compound testing in the PARK7 FP assay with JYQ-107; format: biochemical; conditions: for inhibition at 0.25 µM: read-out: % Inhibition 0.25 µM; for potency in FP assay compared to JYQ-88: 0.25 and 1 μM
T1 sequence (Q99497 1-189): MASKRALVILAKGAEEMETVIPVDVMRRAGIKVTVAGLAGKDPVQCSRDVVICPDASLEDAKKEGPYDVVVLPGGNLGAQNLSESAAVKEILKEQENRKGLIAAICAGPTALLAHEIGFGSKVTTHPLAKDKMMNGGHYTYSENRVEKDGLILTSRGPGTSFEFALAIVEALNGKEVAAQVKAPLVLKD

[2] = target: T1, PARK7; experiment: Cell-based competition assay with probe JYQ-92 in HEK293T cells; conditions: live HEK293T cells, 5 μM, 24 h
Method: Samples were resolved by SDS-PAGE and analyzed by fluorescence scanning and Western blotting (Figure 2B). The target engagement of cellular PARK7 is reflected by the disappearance of the PARK7 labeling band in the fluorescence gel scan and by the loss of the shifted probe-labeled PARK7 band in the Western blot.
HEK293T cells were treated with the indicated concentrations of indicated inhibitors for indicated incubation time.
Figure S1. Assessment of the cell permeability of JYQ -88. (A) Structure of JYQ-92.
(B) Target engagement of JYQ-88 in HEK293T cells. HEK293T cells were incubated […]
with PARK7 probe JYQ-92 fo r 1 h at 37 °C. The reactions were stopped by the addition of NuPAGE™ LDS sample buffer (4x). Samples were resolved by SDS -PAGE using […]
fluorescence scanning on a Typhoon FLA 9500 (GE Healthcare Life Sciences) using […]
The disappearance of the JYQ-92-labeled band in […]
of JYQ-88 is used as a measurement of cellular PARK7 engagement with JYQ -88.
(§1) (1 picture or pasted object on this page, not shown here)

[3] = target: T1, PARK7; experiment: High-throughput screen of the crude compound library, PARK7 fluorescence polarization (FP) assay with FP reagent JYQ-107; format: biochemical; conditions: for inhibition at 1.25 µM: crude compound library, read-out: HTS FP assay %Inhibition (1.25 µM)
[4] = tested on: DUBs; experiment: Activity-based DUB profiling with Rho-Ub-PA probe in HEK293T cells; format: cell-based, human; conditions: 5 µM, 24 h
Method: Figure S3. Activity evaluation of inhibitors against DUBs in HEK293T cells. (A ) Inhibitors from structure modification. (B) Inhibitors from HTS. HEK293T cells were […]
incubation with Rho- Ub-PA probe for 30 min at 37 °C. Samples were resolved by SDS - […]
and visualized by fluorescence scanning on a Typhoon FLA 9500 (GE Healthcare Life […]
Nitrocellulose membranes and Western blot analysis.
as §1

[5] = target: T1, PARK7; experiment: Activity evaluation of PROTACs in cells (PARK7 degradation, immunoblot); conditions: A549 cells; for effect of pretreatment on JYQ-194-induced PARK7 degradation: pretreatment 4 h (5 μM pomalidomide, 5 μM JYQ-173 or 10 μM MG-132), then JYQ-194 5 μM 8 h
Method: A549 cells were seeded into 6-well plates. The next day after seeding, cells were incubated with the indicated concentrations of indicated PROTACs for 8 h. The cells were then washed with PBS and collected. The collected cell pellets were lysed with Tris-triton buffer as described above. The prepared cell lysate of each sample (10 μL) was added 5 μL 3× LDS + 5% β-mercaptoethanol, and boiled for 10 min.

[6] = target: T1, PARK7; experiment: biochemical; set-up: Fluorescence polarization competition: residual PARK7 labelling by JYQ-107 probe after 1 h preincubation, % inhibition; conditions: sheet Validation pure compounds
Method: The 15 pure compounds from the two different approaches (5 compounds from structure modification and 10 compounds from HTS) were assessed for their potency to inhibit PARK7 at 0.25 and 1 μM final concentrations using the FP assay (Figure 2A). […] Fifty four compounds showing inhibition above 90% were picked and checked at three different concentrations. Using a Labcyte Echo550 acoustic dispenser, 20, 10, and 5 nL of 1 mM compound stock solutions were transferred from the source plates into an empty 384-well plate to obtain 1, 0.5, 0.25 μM final concentrations. […] The relative loss of FP signal compared with reference controls (5 mM NEM, 100% inhibition, and DMSO, 0% inhibition) was used to calculate the remaining enzyme activity. The inhibition percentage of these 54 compounds was plotted as heatmaps using Graphpad Prism 9.0.1 software. […] Stock solutions of 0.26 μM PARK7 and 80 nM JYQ-107 were prepared. Using a Labcyte Echo550 acoustic dispenser, 10 nL of 1 mM DMSO stock solutions of the library compounds was transferred from the source plates into the empty 1536-well screening plates to obtain a 1.25 μM final compound concentration. Next, PARK7 (6 μL, final concentration 0.2 μM) was dispensed using a Biotek MultiflowFX [compound left out] dispenser and incubated for 2 h, followed by dispensing the probe JYQ-107 (2 μL, final concentration 20 nM). […] The percentage inhibition of each compound was calculated from the FP values, normalized to the positive (5 mM N-ethylmaleimide, 100% inhibition) and negative (DMSO, 0% inhibition) controls.

[7] = crude compounds, 0.5 µM, read-out: % Inhibition 0.5 µM

| inhibition at 0.25 µM ([1]; pure compounds, 0.25 µM) [%] | inhibition at 1 µM ([1]; pure compounds) [%] | inhibition at 0.25 µM ([1]; crude compounds, 0.25 µM) [%] | inhibition at 0.5 µM [1, 7] [%] | inhibition at 1 µM ([1]; crude compounds) [%] | Structure (SMILES) | further results |
| --- | --- | --- | --- | --- | --- | --- |
| 62.8 | 87.7 | – | – | – | N#CN1CC[C@@H](C(=O)Nc2nc3c(s2)CN(C(=O)CN2CCOCC2)CC3)C1 [Compound 1, (R)-1-Cyano-N-(5-(2-morpholinoacetyl)-4,5,6,7-tetrahydrothiazolo[5,4-c]pyridin-2-yl)pyrrolidine-3-carboxamide] | potency in FP assay compared to JYQ-88 ([1]; pure compounds): did not improve; cellular target engagement of PARK7 [2]: did not bind with PARK7 in cells |
| 38.5 | 71 | – | – | – | N#CN1CC[C@@H](C(=O)Nc2nc3c(s2)CN(C(=O)CC2CCNCC2)CC3)C1 [Compound 5, (R)-1-Cyano-N-(5-(2-(piperidin-4-yl)acetyl)-4,5,6,7-tetrahydrothiazolo[5,4-c]pyridin-2-yl)pyrrolidine-3-carboxamide] | potency in FP assay compared to JYQ-88 ([1]; pure compounds): lowered; cellular target engagement of PARK7 [2]: did not bind with PARK7 in cells |
| 67.9 | 93.1 | 64.2 | 85.7 | 98.5 | N#CN1CC[C@@H](C(=O)Nc2nc3c(s2)CN(C(=O)c2cnc(-c4cccs4)s2)CC3)C1 [Compound 108, (R)-1-Cyano-N-(5-(2-(thiophen-2-yl)thiazole-5-carbonyl)-4,5,6,7-tetrahydrothiazolo[5,4-c]pyridin-2-yl)pyrrolidine-3-carboxamide] | inhibition at 1.25 µM [3]: 90.8%; inhibition of DUBs in cells [4]: showed inhibition of one or more DUBs, mainly UCHL1 |
| 84.2 | 95.6 | 68.5 | 86.9 | 97.3 | Cc1csc(-c2cccc(C(=O)N3CCc4nc(NC(=O)[C@@H]5CCN(C#N)C5)sc4C3)c2)n1 [Compound 334, (R)-1-Cyano-N-(5-(3-(4-methylthiazol-2-yl)benzoyl)-4,5,6,7-tetrahydrothiazolo[5,4-c]pyridine-2-yl)pyrrolidine-3-carboxamide] | inhibition at 1.25 µM [3]: 89.4%; inhibition of DUBs in cells [4]: showed inhibition of one or more DUBs, mainly UCHL1 |
| – | – | 60.5 | 81 | 94.1 | N#CN1CC[C@@H](C(=O)Nc2nc3c(s2)CN(C(=O)c2ccc(=O)n(C4CC4)c2)CC3)C1 [Compound 369] | inhibition at 1.25 µM ([3]; FP reagent JYQ-107): 89.2% |
| – | – | 64.1 | 84.8 | 97.7 | N#CN1CC[C@@H](C(=O)Nc2nc3c(s2)CN(C(=O)c2cccc(-c4ncon4)c2)CC3)C1 [Compound 381] | inhibition at 1.25 µM ([3]; FP reagent JYQ-107): 93.4% |
| – | – | 57.7 | 79.9 | 95.9 | CC1CCCCN1S(=O)(=O)c1ccccc1C(=O)N1CCc2nc(NC(=O)[C@@H]3CCN(C#N)C3)sc2C1 (stereo partly shown) [Compound 386] | inhibition at 1.25 µM ([3]; FP reagent JYQ-107): 94.5% |
| 68.3 | 92.6 | 58 | 79.8 | 95.6 | Cc1cc(C(=O)N2CCc3nc(NC(=O)[C@@H]4CCN(C#N)C4)sc3C2)ccc1Br [Compound 415, (R)-N-(5-(4-Bromo-3-methylbenzoyl)-4,5,6,7-tetrahydrothiazolo[5,4-c]pyridin-2-yl)-1-cyanopyrrolidine-3-carboxamide] | inhibition at 1.25 µM ([3]; FP reagent JYQ-107): 93.1%; inhibition of DUBs in cells [4]: showed inhibition of one or more DUBs, mainly UCHL1 |

Second part, the molecule before the results:

| Structure (SMILES) | inhibition at 0.25 µM ([1]; pure compounds, 0.25 µM) [%] | inhibition at 1 µM ([1]; pure compounds) [%] | inhibition at 0.25 µM ([1]; crude compounds, 0.25 µM) [%] | inhibition at 0.5 µM [1, 7] [%] | inhibition at 1 µM ([1]; crude compounds) [%] | further results |
| --- | --- | --- | --- | --- | --- | --- |
| CN1CCN(CC(=O)N2CCc3nc(NC(=O)[C@@H]4CCN(C#N)C4)sc3C2)CC1 [Compound 2, (R)-1-Cyano-N-(5-(2-(4-methylpiperazin-1-yl)acetyl)-4,5,6,7-tetrahydrothiazolo[5,4-c]pyridin-2-yl)pyrrolidine-3-carboxamide] | 53.7 | 83.7 | – | – | – | potency in FP assay compared to JYQ-88 ([1]; pure compounds): did not improve; cellular target engagement of PARK7 [2]: did not bind with PARK7 in cells |
| N#CN1CC[C@@H](C(=O)Nc2nc3c(s2)CN(C(=O)CN2CCNCC2)CC3)C1 [Compound 4, (R)-1-Cyano-N-(5-(2-(piperazin-1-yl)acetyl)-4,5,6,7-tetrahydrothiazolo[5,4-c]pyridin-2-yl)pyrrolidine-3-carboxamide] | 40.2 | 59.9 | – | – | – | potency in FP assay compared to JYQ-88 ([1]; pure compounds): lowered; cellular target engagement of PARK7 [2]: did not bind with PARK7 in cells |
| N#CN1CC[C@@H](C(=O)Nc2nc3c(s2)CN(C(=O)c2cccnc2Oc2ccc(Cl)cc2Cl)CC3)C1 [Compound 345] | – | – | 63.1 | 85 | 95 | inhibition at 1.25 µM ([3]; FP reagent JYQ-107): 92.1% |
| N#CN1CC[C@@H](C(=O)Nc2nc3c(s2)CN(C(=O)c2cccc(S(=O)(=O)N4CCN(C(=O)Cn5cc(COCCOCCNc6cccc7c6C(=O)N(C6CCC(=O)NC6=O)C7=O)nn5)CC4)c2)CC3)C1 (stereo partly shown) [JYQ-187] | – | – | – | – | – | PARK7 degradation ([5]; 8 h): No degradation of PARK7 was observed |
| N#CN1CC[C@@H](C(=O)Nc2nc3c(s2)CN(C(=O)c2cccc(S(=O)(=O)N4CCN(C(=O)Cn5cc(COCCOCCOCCNc6cccc7c6C(=O)N(C6CCC(=O)NC6=O)C7=O)nn5)CC4)c2)CC3)C1 (stereo partly shown) [JYQ-188] | – | – | – | – | – | PARK7 degradation ([5]; 8 h): No degradation of PARK7 was observed |
| N#CN1CC[C@@H](C(=O)Nc2nc3c(s2)CN(C(=O)c2cc(-n4cc(COCCOCCOCCNc5cccc6c5C(=O)N(C5CCC(=O)NC5=O)C6=O)nn4)ccc2F)CC3)C1 (stereo partly shown) [JYQ-195] | – | – | – | – | – | concentration at which PARK7 degradation starts ([5]; 0.1 to 5 μM, 8 h): 2 µM |
| CC(C)C[C@@H](C=O)NC(=O)[C@H](CC(C)C)NC(=O)[C@H](CC(C)C)NC(=O)OCc1ccccc1 [MG-132, reference compound] (Cbz-Leu-Leu-Leu-aldehyde) | – | – | – | – | – | effect of pretreatment on JYQ-194-induced PARK7 degradation [5]: abolished |
| N#CN1CC[C@@H](C(=O)Nc2nc3c(s2)CN(C(=O)c2cccc(O)c2)CC3)C1 [compound 3] | – | – | – | – | – | inhibition at 0.25 µM [6]: 58.4%; inhibition at 1 µM [6]: 90.1% |
| N#CN1CC[C@@H](C(=O)Nc2nc3c(s2)CN(C(=O)c2cccc(S(=O)(=O)NCC4CCCO4)c2)CC3)C1 (stereo partly shown) [compound 55] | – | – | – | – | – | inhibition at 0.25 µM [6]: 64.7%; inhibition at 1 µM [6]: 93.5% |
| N#CN1CC[C@@H](C(=O)Nc2nc3c(s2)CN(C(=O)c2cccc(S(=O)(=O)NCCc4ccc(S(N)(=O)=O)cc4)c2)CC3)C1 [compound 199] | – | – | – | – | – | inhibition at 0.25 µM [6]: 80.7%; inhibition at 1 µM [6]: 94.6% |
| N#CN1CC[C@@H](C(=O)Nc2nc3c(s2)CNCC3)C1 [cyanimide amine precursor, (R)-1-cyano-N-(4,5,6,7-tetrahydrothiazolo[5,4-c]pyridin-2-yl)pyrrolidine-3-carboxamide] | – | – | – | – | – | inhibition at 1 µM ([3]; read-out: % inhibition in HTS): ~40%; inhibition at 0.25 µM [1]: 3%; inhibition at 0.5 µM ([1]; read-out: % inhibition 0.5 μM): 20% |
| Nc1cccc2c1C(=O)N(C1CCC(=O)NC1=O)C2=O (stereo not shown) [pomalidomide, reference compound] | – | – | – | – | – | effect of pretreatment on JYQ-194-induced PARK7 degradation [5]: abolished |
